Values of other authors in patent publication US12527813B2, “Methods to stabilize and reverse atherosclerotic lesions by sulfated polysaccharides” (Calroy Health Sciences, LLC, priority 2017, dated 2026).

Test system: lipid-rich necrotic core
Settings: 24 months

CC(C)c1nc(N(C)S(C)(=O)=O)nc(-c2ccc(F)cc2)c1/C=C/[C@@H](O)C[C@@H](O)CC(=O)O [rosuvastation]
lipid-rich necrotic core reduced, low dose (5 mg/day): 27%
lumen size and artery stenosis change: virtually no change
lipid-rich necrotic core reduced, all patients (33 patients, low or high dose): about 25%
lipid-rich necrotic core reduced, high dose (40/80 mg/day): 19%
